# Counter-ions that a name gives are not always drawn. Like-named read-outs stand apart in the source and are kept apart here.
# Tests used:
# [1] = target: T1, 5HT1A receptors (Canis lupus familiaris, UniProt Q6XXX9); experiment: biochemical; format: binding, dog
# T1 sequence (Q6XXX9 1-423): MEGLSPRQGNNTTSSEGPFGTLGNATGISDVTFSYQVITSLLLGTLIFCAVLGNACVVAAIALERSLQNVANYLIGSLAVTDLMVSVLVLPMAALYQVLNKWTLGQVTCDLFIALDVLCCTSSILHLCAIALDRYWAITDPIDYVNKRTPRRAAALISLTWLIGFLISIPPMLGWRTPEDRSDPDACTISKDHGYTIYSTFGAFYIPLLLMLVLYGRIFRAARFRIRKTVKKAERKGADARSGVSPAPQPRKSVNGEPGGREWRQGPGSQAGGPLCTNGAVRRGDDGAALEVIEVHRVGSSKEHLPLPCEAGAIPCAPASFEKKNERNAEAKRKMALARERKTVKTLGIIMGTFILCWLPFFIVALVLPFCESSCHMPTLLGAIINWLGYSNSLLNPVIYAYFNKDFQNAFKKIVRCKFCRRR
# Description: (§1) Anxiolytic properties were determined using an in vitro assay in which competive binding with the 5-HT1A specific agonist, [^3 H]8-hydroxy-2-(di-n-propylamino)tetralin(8-OH-DPAT) to 5HT1A receptors in the dog hippocampus membrane preparation is measured [Hall et al, J. Neurochem. […] Several compounds were also tested in mice is the exploratory light/dark method as described by Young and Johnson, Soc. […] 1988, 14, 207 in which the exploratory behavior of a mouse is a two-compartment light-dark activity box is monitored electrically and behavioral variables such as time spent in the lit versus dark compartments, rearings in either of the two compartments, number of transitions between the two compartments and other exploratory behavioral variables are recorded.
# [2] = system: mice; experiment: exploratory light/dark method in mice (two-compartment light-dark activity box); format: in vivo; conditions: for minimal effective dose: Mus musculus, read-out: Light/Dark: minimum effective dose; for Light/Dark: % time spent in lit area: at minimum effective dose
# Description: as §1
# [3] = competitive binding vs [^3 H]8-OH-DPAT, dog hippocampus membrane, buspirone value is an average, read-out: 5HT1A IC50
SMILES,"IC50 [1, 3]",further results
"CCOc1ccccc1N1CCN(CCCC2CN(C)C(=O)O2)CC1 (stereo not drawn) [Example 8, 5-[3-[4-(2-Ethoxyphenyl)-1-piperazinyl]propyl]-3-methyl-2-oxazolidinone]",22 nM,
"C=CCOc1ccccc1N1CCN(CCCCC2CN(C)C(=O)O2)CC1 (stereo not drawn) [Example 12, 8-methyl-5-[4-[4-[2(2-propenyloxy)phenyl]-1-piperazinyl]butyl]-2-oxazolidinone hydrochloride hydrate (2:4:1)]",20 nM,"minimal effective dose ([2]; mice, IP): 1 mg/kg; Light/Dark: % time spent in lit area ([2]; mice, IP): 66%"
O=C1OC(CCCN2CCN(c3ccccc3)CC2)CN1c1ccccc1 (stereo not drawn) [Example 22],50 nM,
"O=C1OC(CCCCN2CCN(c3ccccc3O)CC2)CN1c1ccccc1 (stereo not drawn) [Example 17, 5-[4-[4-(2-hydroxyphenyl)-1-piperazinyl]butyl]-3-phenyl-2-oxazolidinone]",15 nM,
"CN1CC(CCCCN2CCN(c3ncccn3)CC2)OC1=O (stereo not drawn) [Example 4, 3-Methyl-5-[4-[4-(2-pyrimidinyl)-1-piperazinyl]butyl]-2-oxazolidinone]",190 nM,
"CCOc1ccccc1N1CCN(CCCCC2CN(C)C(=O)O2)CC1 (stereo not drawn) [Example 9, 5-[4-[4-(2-Ethoxyphenyl)-1-piperazinyl]butyl]-3-methyl-2-oxazolidinone dihydrochloride]",16 nM,
"COc1ccccc1N1CCN(CCCC2CN(c3ccccc3)C(=O)O2)CC1 (stereo not drawn) [Example 23, 5-[3-[4-(2-Methoxyphenyl)-1-piperazinyl]propyl]-3-phenyl-2-oxazolidinone hydrochloride hydrate (1:2)]",11 nM,
"COc1ccccc1N1CCN(CCCC2CN(C)C(=O)O2)CC1 (stereo not drawn) [Example 5, 5-[3-[4-(2-Methoxyphenyl)-1-piperazinyl]propyl]-3-methyl-2-oxazolidinone hydrochloride hydrate (2:2:3)]",29 nM,
"CN1CC(CCCCN2CCN(c3ccccc3)CC2)OC1=O (stereo not drawn) [Example 1, 3-Methyl-5-[4-(4-phenyl-1-piperazinyl)butyl]-2-oxazolidinone]",59 nM,"minimal effective dose ([2]; mice, IP): 10 mg/kg; Light/Dark: % time spent in lit area ([2]; mice, IP): 56%"
"CN1CC(CCCN2CCN(c3ncccn3)CC2)OC1=O (stereo not drawn) [Example 7, 3-Methyl-5-[3-[4-(2-pyrimidinyl)-1-piperazinyl]propyl]-2-oxazolidinone]",510 nM,
"CCOc1ccccc1N1CCN(CCCCC2CN(c3ccccc3)C(=O)O2)CC1 (stereo not drawn) [Example 18, 5-[4-[4-(2-Ethoxyphenyl)-1-piperazinyl]butyl]-3-phenyl-2-oxazolidinone hydrochloride hydrate (2:4:1)]",2 nM,
"O=C1CC2(CCCC2)CC(=O)N1CCCCN1CCN(c2ncccn2)CC1 [Buspirone, buspirone, reference compound]",,"IC50 [1]: 13.2 nM; minimal effective dose ([2]; ip): 5.62 mg/kg; minimal effective dose ([2]; po): 5.62 mg/kg; Light/Dark: % time spent in lit area ([2]; mice, IP): 51%; Light/Dark: % time spent in lit area ([2]; mice, PO): 54%"
"CN1CC(CCCN2CCN(c3ccccc3O)CC2)OC1=O (stereo not drawn) [Example 10, 5-[3-[4-(2-hydroxyphenyl)-1-piperazinyl]propyl]-3-methyl-2-oxazolidinone]",110 nM,
"CN1CC(CCCN2CCN(c3ccccn3)CC2)OC1=O (stereo not drawn) [Example 6, 3-Methyl-5-[3-[4-(2-pyridinyl)-1-piperazinyl]propyl]-2-oxazolidinone hydrochloride hydrate (2:4:1)]",110 nM,
"COc1ccccc1N1CCN(CCCCC2CN(C)C(=O)O2)CC1.Cl.Cl (stereo not drawn) [Example 3, 5-[4-[4-(2-Methoxyphenyl)-1-piperazinyl]butyl]-3-methyl-2-oxazolidinone dihydrochloride]",15 nM,"minimal effective dose ([2]; mice, IP): 3.16 mg/kg; Light/Dark: % time spent in lit area ([2]; mice, IP): 53%"
"CN1CC(CCCCN2CCN(c3ccccn3)CC2)OC1=O (stereo not drawn) [Example 2, 3-Methyl-5-[4-[4-(2-pyridinyl)-1-piperazinyl]butyl]-2-oxazolidinone]",61 nM,"minimal effective dose ([2]; mice, IP): 3.16 mg/kg; Light/Dark: % time spent in lit area ([2]; mice, IP): 53%"
"CCOc1ccccc1N1CCN(CCCC2CN(c3ccccc3)C(=O)O2)CC1 (stereo not drawn) [Example 21, 5-[3-[4-(2-Ethoxyphenyl)-1-piperazinyl]propyl]-3-phenyl-2-oxazolidinone hydrochloride hydrate (2:4:1)]",18 nM,
"COc1ccccc1N1CCN(CCCCC2CN(c3ccccc3)C(=O)O2)CC1 (stereo not drawn) [Example 13, 5-[4-[4-(2-Methoxyphenyl)-1-piperazinyl]butyl]-3-phenyl-2-oxazolidinone hydrochloride hydrate (2:2:1)]",2.2 nM,
"O=C1OC(CCCCN2CCN(c3ccccn3)CC2)CN1c1ccccc1 (stereo not drawn) [Example 14, 3-Phenyl-5-[4-[4-(2-pyridinyl)-1-piperazinyl]butyl]-2-oxazolidinone]",7.7 nM,
"O=C1OC(CCCN2CCN(c3ncccn3)CC2)CN1c1ccccc1 (stereo not drawn) [Example 20, 3-Phenyl-5-[3-[4-(2-pyrimidinyl)-1-piperazinyl]propyl]2-oxazolidinone]",170 nM,
"O=C1OC(CCCCN2CCN(c3ncccn3)CC2)CN1c1ccccc1 (stereo not drawn) [Example 15, 3-Phenyl-5-[4-[4-(2-pyrimidinyl)-1-piperazinyl]butyl]-2-oxazolidinone]",29 nM,
"CN1CC(CCCCN2CCN(c3ccccc3O)CC2)OC1=O (stereo not drawn) [Example 11, 5-[4-[4-(2-Hydroxyphenyl)-1-piperazinyl]butyl]-3-methyl-2-oxazolidinone]",40 nM,
"O=C1OC(CCCN2CCN(c3ccccn3)CC2)CN1c1ccccc1 (stereo not drawn) [Example 19, 3-Phenyl-5-[3-[4-(2-pyridinyl)-1-piperazinyl]propyl]-2-oxazolidinone]",57 nM,
"O=C1OC(CCCCN2CCN(c3ccccc3)CC2)CN1c1ccccc1 (stereo not drawn) [Example 16, 3-Phenyl-5-[4-(4-phenyl-1-piperazinyl)butyl]-2-oxazolidinone]",8.2 nM,

# From patent US5162322A, “Method of treating anxiety with 5-[(4-aryl or heteroaryl-1-piperazinyl]alkyl)-2-oxazolidinones” (A. H. Robbins Company, Incorporated, priority 1991, dated 1992)
